This series is described as follows: gradient 5% acetonitrile 3 min, to 50% in 2 min, to 85% in 15 min, held 3 min, 100 µL/min. Particulars: column: Zorbax Extend-C18 2.1 x 50 mm; eluents: water / acetonitrile, 0.1% formic acid. In a few lines: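 Retention time was recorded from adduct peaks, which were picked computationally and each inspected manually. Pure standards ran in mixtures of ~100 molecules on HPLC coupled to a quadrupole time-of-flight mass spectrometer, in positive and negative ionization mode, through a Zorbax Extend-C18 column (2.1 × 50 mm, 1.8 μm) at 100 μL/min. Eluents were water and acetonitrile, each with 0.1% formic acid.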
Take `O=C(NCCCN1CCCC1=O)c1nc2ccccn2c1-c1ccc(Cl)cc1`: the RP-LC retention time was determined as 690 s.

`c1ccc(N2CCN(Cc3cccn3-c3nnc(N4CCCCC4)s3)CC2)nc1` registered an RP-LC retention time of 627 s. Molecule `Cc1nsc2ncc(C(=O)N3CCOCC3)c(N3CCC(C(=O)Nc4ccc(Cl)cc4)CC3)c12` came in with an RP-LC retention time of 846 s.

`Clc1cccc(Nc2c(-c3ccccc3)nc3cnccn23)c1`: the RP-LC retention time is 921 s.

On to `CCN(Cc1ccccc1)S(=O)(=O)c1cc(-c2nnc(C3CCC3)o2)co1`, for which the RP-LC retention time amounted to 913 s.

Molecule `CCn1c(=O)c(C)nc2cc(-c3noc(-c4ccc(OC)cc4)n3)ccc21` had an RP-LC retention time of 942 s.

Molecule `O=C1CCCN1CCCN(CC(=O)N1CCNCC1)C(=O)c1ccc(F)c(Cl)c1` came in with an RP-LC retention time of 581 s. Under `Cc1cc(N2CCN(c3ccccc3)CC2)n2nc(-c3cccnc3)nc2n1` stands 863 s; under `C=CCn1c(=O)c2ccccc2n(Cc2nc(-c3ccc(SC)cc3)no2)c1=O`, 1100 s; under `CCN(CC)c1nc2ccsc2c(=O)n1CCC(=O)N1CCN(c2ccccc2)CC1`, 919 s. Under `CCC(=O)NCC12CCCC=C1N(C)C(=O)CC2` (stereo not drawn) stands 648 s; under `COc1ccc2c(C)c(CCC(=O)N3CCC(C(N)=O)CC3)c(=O)oc2c1`, 645 s; under `COC(=O)c1c(-c2ccccc2)csc1NC(=O)c1ccnn1C`, 1110 s. Take `COC(=O)c1nnc2c(-c3ccccc3OC)c(C)nn2c1C`: the RP-LC retention time came out at 869 s. Under `Cc1ccc(-c2cn3ccccc3n2)cc1NS(=O)(=O)c1ccc(Cl)cc1` stands 692 s; under `Cc1cnc(-c2ccncc2)n1C1CCCN(S(=O)(=O)c2cn(C)cn2)C1` (stereo not drawn), 557 s. In the case of `COc1cccc2cc(C(=O)NCCn3nc(C)cc3C)oc12` it was 674 s; in that of `Cc1ccccc1Nc1cc(C)n2c(=O)n(Cc3cccnc3)nc2n1`, 750 s; in that of `O=C(Cn1c2ccccc2c2ncn(Cc3nc(C4CC4)no3)c(=O)c21)Nc1ccc2c(c1)OCO2`, 823 s. In the case of `O=C(C1CCCN(c2nnc(-n3cccc3)s2)C1)N1CCN(c2ccccc2)CC1` (stereo not drawn), the RP-LC retention time is 931 s. Under `COc1ccc(-c2nc3ccccn3c2NC(=O)c2ccc([N+](=O)[O-])cc2)cc1` stands 662 s; under `CNC(=O)c1cc(-c2ccc(OC)cc2)n[nH]1`, 583 s; under `Cn1cc(C2=CCN(C(=O)NC(C)(C)C)CC2)c2cccnc21`, 604 s. Molecule `O=C(Nc1cccc(OCc2nnc(-c3ccc(Cl)cc3)o2)c1)c1ccsc1` yielded an RP-LC retention time of 1010 s. In the case of `Cc1cccc(NC(=O)C2CCN(S(=O)(=O)c3cc(C(=O)N4CCOCC4)cs3)CC2)c1C` it was 760 s; in that of `CCCc1ccc(S(=O)(=O)NC2CCN(c3ccc(=O)n(CC4CC4)n3)CC2)cc1`, 972 s; in that of `O=C1CCCc2cc(S(=O)(=O)N3CCC(C(=O)NC4CCCc5ccccc54)CC3)ccc2N1` (stereo not drawn), 795 s. In turn, `O=C(Cn1ccc2ccc(N3CCOCC3)nc21)NCc1ccc(F)cc1Cl` displayed an RP-LC retention time of 912 s.

Molecule `CCOc1ccc(NC(=O)C2CCN(C(=O)C3Sc4ccccc4NC3=O)CC2)cc1` (stereo not drawn) displayed an RP-LC retention time of 725 s.

`O=C(CCNc1c(-c2cccc(F)c2)nc2cnccn12)NCc1ccc(Cl)cc1` returned an RP-LC retention time of 785 s. The molecule `Cc1ccn2c(Nc3ccc4c(c3)OCCO4)c(-c3ccc(N(C)C)cc3)nc2c1` gave an RP-LC retention time of 734 s.

On to `COC1=CC(=O)O[C@H](/C=C/c2ccc3c(c2)OCO3)C1`, for which the RP-LC retention time worked out at 809 s. Under `Cc1ccc(NS(=O)(=O)c2c(C)sc(C)c2-c2cc(C(F)(F)F)on2)c(C)c1` stands 1240 s; under `Cc1cc(C(=O)NCC(c2cn(C)c3ccccc23)N(C)C)no1` (stereo not drawn), 557 s.

The molecule `CCOC(=O)[C@H](CCc1ccccc1)N[C@@H](C)C(=O)N1CCC[C@@H]1C(=O)O` registered an RP-LC retention time of 647 s. The molecule `Cn1c(CCc2cccc(NC(=O)C3CCN(S(=O)(=O)N4CCCC4)CC3)c2)nc2ccccc21` registered an RP-LC retention time of 672 s. In the case of `CCc1cccc(C)c1Nc1c(-c2cc(Br)ccc2O)nc2nc(C)cc(C)n12` it was 1040 s; in that of `O=C(c1nc(-c2ccnc(N3CCCCC3)c2)no1)N1CCC2(CC1)OCCO2`, 673 s; in that of `CC1Oc2ccc(S(=O)(=O)N3CCC(C(=O)Nc4ccccc4F)CC3)cc2NC1=O` (stereo not drawn), 761 s. In the case of `Cc1csc(-c2cc(S(=O)(=O)N3CCN(Cc4ccc5c(c4)OCO5)CC3)c(C)s2)n1`, the RP-LC retention time stood at 740 s.

Molecule `Cc1ccc(C)c(NC(=O)CN2C(=O)CCc3cc(S(=O)(=O)N4CCCCC4C)ccc32)c1` (stereo not drawn) displayed an RP-LC retention time of 983 s. Under `CCc1noc(NC(C)=O)c1-c1ccc(C)c(S(=O)(=O)Nc2cccc(C(F)(F)F)c2)c1` stands 889 s; under `O=C(NC1CCN(c2cc(-c3ccccc3)[nH]n2)C1)c1ccc(F)c(F)c1` (stereo not drawn), 739 s. Turning to `CC(C)CNC(=O)NC1CCN(c2nc3cccnc3n(Cc3ccccc3)c2=O)CC1`, the RP-LC retention time stood at 964 s. For the molecule `O=C1CCCc2cc(S(=O)(=O)NCC3CCN(Cc4ccc(F)cc4)CC3)ccc2N1`, the RP-LC retention time is 603 s.

Consider `Cc1cc(C)cc(NC(=O)Cn2c(C)nc3onc(C)c3c2=O)c1`, for which the RP-LC retention time was found to be 802 s. `CN(CCCNC(=O)C1CCc2nc(N3CCCC3)ncc2C1)c1ccccc1` (stereo not drawn) returned an RP-LC retention time of 560 s.

`COc1ccc(-c2ncc(NC(=O)C(C)C)cn2)cc1` had an RP-LC retention time of 802 s. Under `CC(CCc1ccccc1)NC(=O)CN1CCCN(Cc2cccc(Cl)c2)S1(=O)=O` (stereo not drawn) stands 1120 s; under `Cc1ccc(-c2cnn3c(N4CCN(c5ccccn5)CC4)cc(C)nc23)cc1`, 751 s; under `O=C(NC1CC1)c1cc(-c2cccs2)on1`, 788 s. Under `C[C@]12C=CC(=O)C=C1[C@@H](F)C[C@H]1[C@@H]3CC[C@](O)(C(=O)CO)[C@@]3(C)C[C@H](O)[C@@]12F` stands 660 s; under `CCOc1ccc(CNc2nc3ccccc3n2CCN(CC)CC)cc1`, 1300 s. In the case of `O=C(c1ccco1)N1CCc2c([nH]c3ccccc23)C1c1ccc(Cl)cc1` (stereo not drawn) it was 1170 s. Turning to `CCCCn1cc(S(=O)(=O)Nc2ccc(F)c(F)c2)c2cccnc21`, the RP-LC retention time amounted to 966 s. Take `COc1ccc2c(Oc3ccc(NC(=O)c4c(C)n(CC(C)(C)O)n(-c5ccccc5)c4=O)nc3)ccnc2c1`: the RP-LC retention time turned out to be 707 s.

`CC(C)CCNC(=O)C1CCCN(C(=O)c2cc(-c3ccncc3)n[nH]2)C1` (stereo not drawn) yielded an RP-LC retention time of 591 s. `COc1ccc(OC)c(CNC(=O)Cc2nnc(-c3ccc4ncccc4c3)o2)c1` came in with an RP-LC retention time of 688 s.

For the molecule `O=C(NCC1CCCO1)c1cn(-c2ccc(NC(=O)C3CC3)cn2)cn1` (stereo not drawn), the RP-LC retention time is 633 s.

Turning to `COC(=O)c1cc(S(=O)(=O)N2CCCC2C(=O)Nc2cccc(C#N)c2)cn1C` (stereo not drawn), the RP-LC retention time came to 826 s. Under `Cc1sc2ncnc(N3CCCCC3)c2c1C(=O)NCc1cc(F)ccc1F` stands 1020 s; under `CCOC(=O)c1nc(N(C)c2cccc(Cl)c2)c2ccccc2n1`, 982 s; under `CN(C)S(=O)(=O)c1ccc2c(c1)N(CC(=O)NCc1cccc(F)c1)C(=O)C1CCCCN21` (stereo not drawn), 900 s. Molecule `Cc1nc(-c2cccnc2)nc2c1CCC(=O)N2CC1CCCO1` (stereo not drawn) registered an RP-LC retention time of 626 s. Molecule `O=C(NCc1cccc(Cl)c1)C1=C2CCCN2c2ccc(F)cc2S1(=O)=O` gave an RP-LC retention time of 933 s.

As for `CN(C)c1nc2ncn3c(=O)n(CC(=O)Nc4ccc(F)c(F)c4)nc3c2s1`, the RP-LC retention time came out at 696 s. With `O=C(O)C(Cc1ccccc1)NS(=O)(=O)c1ccc(Cl)c(C(F)(F)F)c1` (stereo not drawn), the RP-LC retention time was determined as 887 s. In the case of `COC(=O)c1ccc2c(=O)n(CCc3ccccc3)c(N3CCSC3)nc2c1` it was 1110 s; in that of `COc1cccc2cc(C(=O)NCCC(O)C(C)(C)C)oc12` (stereo not drawn), 770 s. Under `O=C(Cn1cnc2c(nc3n2CCCCC3)c1=O)N1CCN(C2CCCCC2)CC1` stands 585 s. In the case of `Cn1nc(-c2ccncc2)nc1C1CN(S(=O)(=O)c2cccc(C(F)(F)F)c2)C1` it was 715 s. In turn, `O=C(c1cn(-c2cccc(Cl)c2)nn1)N1CCN(c2ccccc2F)CC1` had an RP-LC retention time of 882 s.

On to `CCOC(=O)c1cc(S(=O)(=O)N2CCCC2C(=O)N2CCCCCC2)cn1C` (stereo not drawn), for which the RP-LC retention time is 822 s. For `Cc1cc(-c2c(C)sc(C)c2S(=O)(=O)NC2CCC(C)CC2)n[nH]1` (stereo not drawn), the RP-LC retention time came out at 1140 s. `CC(=O)N1CCN(S(=O)(=O)c2ccc3c(c2)OCCCO3)CC1` showed an RP-LC retention time of 641 s.

Molecule `CCC(C)(C)NS(=O)(=O)c1ccc(-c2nc(C(C)C)cs2)s1` had an RP-LC retention time of 1240 s. Regarding `O=C(NCC1COc2ccccc2O1)c1cc(-c2cccnc2)nc2ccccc12` (stereo not drawn), the RP-LC retention time stood at 760 s. In the case of `CCNC(=O)C1CCCN(c2nc3ncn(CC(=O)NCc4ccc(F)cc4)c(=O)c3s2)C1` (stereo not drawn) it was 648 s.
